Key:
Assay type in all cases: in vivo
[1] = test system: ANGPTL7 WT mice; assay: DEX-Ac-induced ocular hypertension in ANGPTL7 WT mice (IOP measurement); settings: weekly periocular CF injections of DEX-Ac in both eyes, versus vehicle-treated, week 1 to 6
Text: (§1) IOP measurements of DEX-Ac-treated (n=18) versus vehicle-treated (n=6) mice show IOP elevation from week 1 to 6; **p<0.01, ***p<0.001, ****p<0.0001.

[2] = test system: ANGPTL7 KO mice; assay: DEX-Ac-induced ocular hypertension in ANGPTL7 KO mice (IOP measurement); settings: weekly periocular CF injections of DEX-Ac in both eyes, versus vehicle-treated, week 1 to week 6
Text: as §1

[3] = test system: ANGPTL7; assay: ANGPTL7 siRNA in DEX-Ac-induced ocular hypertension (steroid-induced IOP) in wild-type mice; settings: WT mice; weekly periocular CF injections of DEX-Ac to both eyes; compared with vehicle-treated mice; starting 6-days post-injection
Text: dsRNA were further assessed for their ability to reduce steroid induced IOP in vivo in wild-type mice. […] Mice were divided into following groups as shown in FIG. 4: a) Vehicle (n=4), b) Vehicle+PBS (n=6), c) DEX-Ac (n=12), d) DEX-Ac+siRNA #3 (n=14), and e) DEX-Ac+siRNA #5 (n=14). […] At Day 22, siRNA targeting ANGPTL7 (#3 and #5) were intravitreally injected into groups: d and e (DEX-Ac+siRNA #3 and DEX-Ac+siRNA #5) and IOP measurements continued to be recorded.

CC(=O)OCC(=O)[C@@]1(O)[C@H](C)C[C@H]2[C@@H]3CCC4=CC(=O)C=C[C@]4(C)[C@@]3(F)[C@@H](O)C[C@@]21C [DEX-Ac, dexamethasone-21-acetate]
IOP elevation [1]: significantly elevated IOP | IOP elevation [2]: did not elevate IOP | IOP elevation [3]: rapid and significantly higher
